# Where two headings read alike, the source gives them in different places. Non-standard residues stand in square brackets, D forms with d. No end group written: not given here. Tyr(3,5-I2) = N[C@@H](Cc1cc(I)c(O)c(I)c1)C(=O)O
# Assays:
# photoreceptor cells = assay type: cell-based, rat
# Experimental: To quantitate this assay, we developed a cell-based Rho42 ELISA test as follows: Several postnatal rat retinal cultures containing different numbers of cells, were incubated for 2-4 days following which cultures were fixed and immunolabelled with either the Rho42 monoclonal antibody, or the nonspecific monoclonal antibody P3, secreted by the myeloma cell line P3X6Ag8. Antibody binding was detected using a secondary antibody labelled with horseradish peroxidase and a chromogenic substrate O-phenylenediamine (OPD), having a maximum absorption wavelength of 490 nm. The level of absorption of light at 490 nm measured in the cultures is therefore directly related to the amount of primary antibody that originally bound to the cells. In FIG. 8 it can be seen that there is a linear relationship between the level of absorption at 490 nm and the number of cells in each culture.
# Next, rat retinal neuronal cultures were incubated in the presence of IGF-I or IGF-II (54-67) for 48 hours following which they were subjected to the cell-based ELISA test as described above. Both IGF-I and IGF-II (54-67) promoted the survival of photoreceptor cells by 20-30% compared with control untreated cultures.
# [1] = system: postnatal rat retinal neuronal cells; experiment: calcein-AM survival assay, dissociated postnatal rat retinal neuronal cultures; assay type: cell-based; conditions: for fluorescence values (total number of cells surviving) versus untreated cultures: peptides 100 uM, postnatal rat retina; for fluorescence values (total number of cells surviving) versus untreated cultures / relative fluorescence units (total number of cells surviving) versus untreated control: 4 days; for relative fluorescence units (total number of cells surviving) versus untreated control: 100 nM, postnatal day 6 rat retina
# Experimental: (§1) Retinas were dissected from embryonic chicks, dissociated by enzymatic digestion and cultured in vitro in defined insulin/serum-free medium according to Sato et al. (1979, Proc. Natl. Acad. Sci. USA 76:514-517). The number of cells in culture was measured using the vital stain calcein-AM. All cells are permeable to calcein-AM, but only live cells are capable of converting this compound into a fluorescent derivative detectable by ordinary methods. In the first experiment, calcein-AM (6 μM) was added to different cultures of retinal cells and the relationship between the level of fluorescence and the number of cells was determined.
# To determine the concentration of IGF-I required to promote survival of pre- or postnatal retinal neurons in culture, the following experiments were carried out: Retinal neurons were prepared from dissociated retina obtained from 10 day old chick embryos, or from […] postnatal day 6 rats as described above. Cultures were incubated in the presence of increasing concentrations of IGF-I and the number of cells surviving at 48 hours post-treatment was measured in the calcein-AM assay. […] Based upon previously published data, the concentrations of IGF-I that promote neuronal cell survival in our experiments are consistent with the fact that IGF-I is acting through its own receptor (Karey et al., 1988, In Vitro Cell. Dev. Biol. 24:1107-1113; Ballard et al., 1988, Biochem. J. 249:721-726).
# To determine whether retinal survival could be enhanced when incubated in the presence of functional derivatives of IGF-I and IGF-II, a linear fragment of IGF-II that is relatively conserved within both IGF-I and IGF-II, was tested in our assay. The fragment contained a sequence of 14 amino acids from IGF-II (amino acids 54-67, wherein the amino terminal amino acid of IGF-II is number 1).
# To determine whether IGF-I, IGF-II, and IGF-III can promote the survival of retinal neuronal cells, dissociated cultures of postnatal rat retina were prepared and assayed for the total number of cells present after incubation in the presence or absence of IGFs. Retinas were dissected from postnatal day 6 rats, dissociated by enzymatic digestion and seeded at a density of 6.25×10^4 cells/cm^2 in defined insulin/serum-free media (Bottenstein et al., 1979, PNAS 76:514-517). These cultures are heterogenous, comprised of at least five independent retinal neuronal cell subpopulations, i.e., amacrine, bipolar, horizontal, photoreceptor and ganglion cells. Cultures were incubated in the presence or absence of 100 nM of each of the IGFs. The total number of cells remaining after 4 days was assayed by incubation with the vital stain calcein-AM at 6 uM. This compound is taken up by all cells but can only be converted to a fluorescent derivative by live cells.
# To determine whether linear peptide derivatives of IGFs can support the survival of retinal neuronal cells, dissociated cultures of postnatal rat retina were prepared and assayed for the total number of cells present after incubation in the presence or absence of peptides (100 uM). Retinal neuronal cell cultures were prepared as described in Example 11 and the total number of cells surviving analyzed analogously. Peptides were derived from the amino acid regions 7-30 and 55-70 of IGF-I and […] and the region within IGF-II, amino acids 54-67.
# [2] = system: photoreceptor subpopulation of cells; experiment: Rho42 antibody fluorescence staining of postnatal rat retinal neuronal cultures; assay type: cell-based; conditions: 100 nM, 48 hours
# Experimental: To determine whether IGF-I or IGF-II (54-67) could specifically promote survival of the photoreceptor subpopulation of cells in rat retinal neuronal cultures, the following experiments were carried out: The monoclonal antibody Rho42, which binds to an antigenic epitope within the extracellular domain of rhodopsin expressed on the surface of rod photoreceptor cells (Molday and MacKenzie, 1983, Biochemistry 22:653), was used in this assay. Postnatal rat retinal neuronal cultures were incubated in the presence or absence of 100 nM of IGF-I for 48 hours. Cells were harvested and reacted with Rho42 to which a fluorescent label had been added. Slides were prepared and the level of fluorescence in the cultures was qualitatively assessed using a fluorescence microscope.
# retinal neuronal cells = experiment: calcein-AM survival assay, dissociated embryonic chick retinal cultures; assay type: cell-based; conditions: 48 hours post-treatment
# Experimental: To determine whether IGF-1 acts to promote survival of retinal neuronal cells, dissociated cultures of avian retina were prepared from animals at various developmental ages and the number of cells present in the cultures, following incubation for 48 hours in the presence or absence of IGF-I, was measured.
# as §1
# In the next experiment, IGF-I was added to half of the cultures at a final concentration of 100 nM, and the number of cells remaining at 48 hours post-treatment was measured using the calcein-AM assay described above. […]
# retinal neurons = experiment: retinal neurite regeneration, phase contrast microscopy; assay type: cell-based; conditions: 100 nM, 2-4 days following treatment, insulin/serum-free media
# Experimental: To determine whether IGF-I affects retinal neurite regeneration, a population of neurons prepared from dissociated retina was cultured in defined insulin/serum-free media in the presence or absence of 100 nM IGF-I. Cultures were examined by phase contrast microscopy at 2-4 days following IGF-I treatment.
compound,measurement,setting,value
"CC(C)C[C@H](NC(=O)[C@H](C)N)C(=O)N[C@@H](CC(C)C)C(=O)N[C@@H](CCC(=O)O)C(=O)N[C@H](C(=O)N[C@@H](Cc1ccc(O)cc1)C(=O)N[C@@H](CS)C(=O)N[C@@H](C)C(=O)N[C@H](C(=O)N1CCC[C@H]1C(=O)N[C@@H](C)C(=O)N[C@@H](CCCCN)C(=O)N[C@@H](CO)C(=O)N[C@@H](CCC(=O)O)C(=O)O)[C@@H](C)O)[C@@H](C)O [IGF-II (54-67), ALLETYCATPAKSE]",promoted survival of photoreceptor cells compared with control untreated cultures,photoreceptor cells; 48 h,20-30%
CAPAKSE,fluorescence values (total number of cells surviving) versus untreated cultures,[1],higher fluorescence values than untreated cultures
CATPAKSE,fluorescence values (total number of cells surviving) versus untreated cultures,[1],higher fluorescence values than untreated cultures
EALLETYCATPAKSE,fluorescence values (total number of cells surviving) versus untreated cultures,[1],higher fluorescence values than untreated cultures
GAELVDALQFVSGDRGFYFNKPTG (GAELVDALQFYSGDRGFYFNKPTG),fluorescence values (total number of cells surviving) versus untreated cultures,[1],higher fluorescence values than untreated cultures
"IGF-I: Recombinant human insulin-like growth factor I (somatomedin C), 70 amino acids, SEQ ID NO:1","level of Rho42 fluorescence (photoreceptor survival), qualitative",[2],increased level of fluorescence compared to untreated cultures
same,promoted survival of photoreceptor cells compared with control untreated cultures,"photoreceptor cells; 48 hours, rat retinal neuronal cultures",20-30%
same,relative fluorescence units (total number of cells surviving) versus untreated control,[1],higher than that found for untreated control cultures
same,survival of postnatal retinal neurons versus concentration,"[1]; postnatal day 6 rats, increasing concentrations, 48 hours post-treatment",promote survival of retinal neurons in culture in a dose-dependent manner
same,"enhanced survival of cells compared to control, untreated cultures","retinal neuronal cells; 100 nM, retinal cultures from embryos at 8, 10, 12 and 14 days of age",20-60%
same,survival of prenatal retinal neurons versus concentration,"retinal neuronal cells; 10 day old chick embryos, increasing concentrations",promote survival of retinal neurons in culture in a dose-dependent manner
same,cells with neurites (axonal regeneration),retinal neurons,more cells with neurites than untreated control cultures
"IGF-II: Recombinant human insulin-like growth factor II, 67 amino acids, SEQ ID NO:16",relative fluorescence units (total number of cells surviving) versus untreated control,[1],higher than that found for untreated control cultures
"IGF-III: truncated form of IGF-I lacking the three N-terminal amino acid residues, SEQ ID NO:2",relative fluorescence units (total number of cells surviving) versus untreated control,[1],higher than that found for untreated control cultures
"TY(I2)CAPAKSE (T[Tyr(3,5-I2)]CAPAKSE) [iodinated TYCAPAKSE]",fluorescence values (total number of cells surviving) versus untreated cultures,[1],higher fluorescence values than untreated cultures
TYCAPA,fluorescence values (total number of cells surviving) versus untreated cultures,[1],higher fluorescence values than untreated cultures
YCAPA,fluorescence values (total number of cells surviving) versus untreated cultures,[1],higher fluorescence values than untreated cultures

# From US6310040A, “Treating retinal neuronal disorders by the application of insulin-like growth factors and analogs” (Cephalon, Inc., priority 1992, dated 2001)
